Values quoted from earlier work as cited in patent US20160175482A1, “COMPOSITION AND DELIVERY SYSTEM” (LOCATE THERAPEUTICS LIMITED, priority 2013, published 2016).

log P: 6.85
SMILES: Cc1ccc(C)c(N=Nc2cc(C)c(N=Nc3c(O)ccc4ccccc34)cc2C)c1 [Oil Red-O]
